Reference: ChEMBL document CHEMBL5338822, “The Role of Allylic Strain for Conformational Control in Medicinal Chemistry” (J Med Chem, 2023)

Columns and labels:
[1] = target: T1, Sphingosine 1-phosphate receptor 1 (Homo sapiens, UniProt P21453); experiment: Inhibition of human S1P1 expressed in human HeLa cells incubated for 20 mins by FLIPR assay; format: cell-based
[2] = target: T1, Sphingosine 1-phosphate receptor 1; experiment: Antagonist activity at human S1P1 transfected in CHO cells incubated for 120 mins by [gamma-35S]GTP binding assay; format: functional, cell-based

T1 sequence (P21453 whole entry): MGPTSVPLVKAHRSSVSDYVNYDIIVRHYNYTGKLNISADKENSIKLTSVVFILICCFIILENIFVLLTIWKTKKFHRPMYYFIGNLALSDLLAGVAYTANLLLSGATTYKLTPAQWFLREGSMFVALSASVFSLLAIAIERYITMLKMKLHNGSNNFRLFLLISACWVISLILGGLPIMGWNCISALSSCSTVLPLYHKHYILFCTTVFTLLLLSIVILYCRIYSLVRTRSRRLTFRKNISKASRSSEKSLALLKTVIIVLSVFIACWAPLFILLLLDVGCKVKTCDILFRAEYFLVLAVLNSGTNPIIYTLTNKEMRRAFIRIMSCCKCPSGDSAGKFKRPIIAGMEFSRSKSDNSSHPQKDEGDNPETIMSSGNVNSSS

IC50 [1]: 170 nM
IC50 [2]: 4270 nM
SMILES: Cc1cc(-c2cccc(NCc3ccc(Cl)c(Cl)c3)c2)ccc1C(=O)N[C@@H](C)C(=O)O
